Each structure is given as a SMILES string.

Chain of DCN1 (Q96GG9 whole entry): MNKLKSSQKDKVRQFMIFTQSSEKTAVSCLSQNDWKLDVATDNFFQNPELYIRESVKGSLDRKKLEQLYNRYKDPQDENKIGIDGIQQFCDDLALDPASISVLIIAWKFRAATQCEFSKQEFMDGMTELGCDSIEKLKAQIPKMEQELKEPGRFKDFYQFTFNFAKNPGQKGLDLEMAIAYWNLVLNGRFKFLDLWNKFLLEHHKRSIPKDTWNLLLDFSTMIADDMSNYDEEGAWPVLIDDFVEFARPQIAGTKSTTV

The experiment deals with DCN1 (Homo sapiens (Human), UniProt Q96GG9). The experiment can be described thus: TR-FRET binding assay (biotin-DCN1 / Ac-UBE2M12-AlexaFluor488). The following applies: mean ± SD (n); read-out: DCN1_TRFRET Mean EC50. Here is the method:
• IC50 values were generated using our TR-FRET binding assay and are represented as the mean of three replicates with errors reported as the standard deviation.
The assay cocktail was then incubated for 1 h at room temperature and distributed using a WellMate instrument (Matrix). Compounds to be screened were added to assay plates from DMSO stock solutions by pin transfer using 50SS pins (V&P Scientific). […] All compounds were tested in triplicate or more.
Usually EC50 stands for the concentration at which the effect is half-maximal. As to `CCN1C(=O)[C@@H](NC(=O)c2cccc(C(F)(F)F)c2)[C@@H](c2ccc(F)cc2)c2c(COC(C)=O)nn(-c3ccccc3)c21` [RG-0013839, [(4S,5S)-7-ethyl-4-(4-fluorophenyl)-6-oxo-1-phenyl-5-[3-(trifluoromethyl)benzamido]-1H,4H,5H,6H,7H-pyrazolo[3,4-b]pyridin-3-yl]methyl acetate], the EC50 was determined as 116 ± 13.2 nM.

`CCCN1CCN2C(=O)[C@@H](NC(=O)c3cccc(C)c3)[C@@H](c3ccc(F)cc3)C(C(C)=O)=C12` [RG-0008677, N-[(6S,7S)-8-acetyl-7-(4-fluorophenyl)-5-oxo-1-propyl-1H,2H,3H,5H,6H,7H-imidazo[1,2-a]pyridin-6-yl]-3-methylbenzamide]: the EC50 is 5790 nM. In the case of `CCN1C(=O)[C@@H](NC(=O)c2cccc(C(F)(F)F)c2)[C@@H](c2ccc(F)cc2)c2c(CN3CCN(C(=O)OC(C)(C)C)CC3)nn(-c3ccccc3)c21` [RG-0014059, tert-butyl 4-{[(4S,5S)-7-ethyl-4-(4-fluorophenyl)-6-oxo-1-phenyl-5-[3-(trifluoromethyl)benzamido]-1H,4H,5H,6H,7H-pyrazolo[3,4-b]pyridin-3-yl]methyl}piperazine-1-carboxylate] it was 231 ± 16.5 nM; in that of `CCN1C[C@@H](NC(=O)c2cccc(C)c2)[C@@H](c2ccc(F)cc2)c2c(C)nn(-c3ccccc3)c21` [RG-0009507, N-[(4S,5S)-7-ethyl-4-(4-fluorophenyl)-3-methyl-1-phenyl-1H,4H,5H,6H,7H-pyrazolo[3,4-b]pyridin-5-yl]-3-methylbenzamide], more than 36500 nM. Regarding `CCCN1C(=O)[C@@H](NC(=O)c2cccc(C)c2)[C@@H](c2ccc(F)cc2)c2c(C)nn(-c3ccccc3)c21` [RG-0007415, N-[(4S,5S)-4-(4-fluorophenyl)-3-methyl-6-oxo-1-phenyl-7-propyl-1H,4H,5H,6H,7H-pyrazolo[3,4-b]pyridin-5-yl]-3-methylbenzamide], the EC50 was 1040 ± 204 nM. The result for `CCN1C(=O)[C@@H](NC(=O)c2cccc(C(F)(F)F)c2)[C@@H](c2ccc(F)cc2)c2c(CNC(=O)OC)nn(-c3ccccc3)c21` [RG-0014054, methyl N-{[(4S,5S)-7-ethyl-4-(4-fluorophenyl)-6-oxo-1-phenyl-5-[3-(trifluoromethyl)benzamido]-1H,4H,5H,6H,7H-pyrazolo[3,4-b]pyridin-3-yl]methyl}carbamate] reads 114 ± 4.73 nM; that for `CCN1C(=O)[C@@H](NC(=O)c2cccc(C(F)(F)F)c2)[C@@H](c2ccc(F)cc2)c2c(CNC(=O)CCCC[C@@H]3SC[C@@H]4NC(=O)N[C@@H]43)nn(-c3ccccc3)c21` [RG-0014155, N-[(4S,5S)-3-({5-[(3aS,4S,6aR)-2-oxo-hexahydro-1H-thieno[3,4-d]imidazol-4-yl]pentanamido}methyl)-7-ethyl-4-(4-fluorophenyl)-6-oxo-1-phenyl-1H,4H,5H,6H,7H-pyrazolo[3,4-b]pyridin-5-yl]-3-(trifluoromethyl)benzamide], 123 ± 22.5 nM. The result for `CCC(C)n1nc(C)c2c1N(CC)C(=O)[C@@H](NC(=O)c1cccc(C)c1)[C@H]2c1ccc(F)cc1` (stereo partly drawn) [RG-0008861, N-[(4S,5S)-1-(butan-2-yl)-7-ethyl-4-(4-fluorophenyl)-3-methyl-6-oxo-1H,4H,5H,6H,7H-pyrazolo[3,4-b]pyridin-5-yl]-3-methylbenzamide] reads 827 ± 371 nM. The result for `CCN1C(=O)[C@@H](NC(=O)c2ccc3ncsc3c2)[C@@H](c2ccc(F)cc2)c2c(C)nn(-c3ccccc3)c21` [RG-0014158, N-[(4S,5S)-7-ethyl-4-(4-fluorophenyl)-3-methyl-6-oxo-1-phenyl-1H,4H,5H,6H,7H-pyrazolo[3,4-b]pyridin-5-yl]-1,3-benzothiazole-6-carboxamide] reads 6310 ± 465 nM. As to `CCN1C(=O)[C@@H](NC(=O)c2cccc(C(F)(F)F)c2)[C@@H](c2ccc(F)cc2)c2c(CNCC(F)(F)F)nn(-c3ccccc3)c21` [RG-0014145, N-[(4S,5S)-7-ethyl-4-(4-fluorophenyl)-6-oxo-1-phenyl-3-{[(2,2,2-trifluoroethyl)amino]methyl}-1H,4H,5H,6H,7H-pyrazolo[3,4-b]pyridin-5-yl]-3-(trifluoromethyl)benzamide], the EC50 turned out to be 161 ± 13.1 nM.

As to `CCN1C(=O)[C@@H](NC(=O)c2cccc(C)c2)[C@@H](c2ccc(F)cc2)c2c(C)nn(C(C)C(F)(F)F)c21` (stereo partly drawn) [RG-0008879, N-[(4S,5S)-7-ethyl-4-(4-fluorophenyl)-3-methyl-6-oxo-1-(1,1,1-trifluoropropan-2-yl)-1H,4H,5H,6H,7H-pyrazolo[3,4-b]pyridin-5-yl]-3-methylbenzamide], the EC50 came out at 7260 ± 1090 nM. In the case of `CCCN1C(=O)[C@@H](NC(=O)c2cccc(C)c2)[C@@H](c2ccc(F)cc2)c2c(C)nn(CCC)c21` [RG-0008666, N-[(4S,5S)-4-(4-fluorophenyl)-3-methyl-6-oxo-1,7-dipropyl-1H,4H,5H,6H,7H-pyrazolo[3,4-b]pyridin-5-yl]-3-methylbenzamide] it was 1170 ± 99.3 nM; in that of `CCN1C(=O)[C@@H](NC(=O)c2ccc3c(ccn3C)c2)[C@@H](c2ccc(F)cc2)c2c(C)nn(-c3ccccc3)c21` [RG-0014151, N-[(4S,5S)-7-ethyl-4-(4-fluorophenyl)-3-methyl-6-oxo-1-phenyl-1H,4H,5H,6H,7H-pyrazolo[3,4-b]pyridin-5-yl]-1-methyl-1H-indole-5-carboxamide], 3230 ± 806 nM; in that of `CCN1C(=O)[C@@H](NC(=O)c2cccc(C(F)(F)F)c2)[C@@H](c2ccc(F)cc2)c2c(CNS(=O)(=O)NC(=O)OC(C)(C)C)nn(-c3ccccc3)c21` [RG-0014160, tert-butyl N-({[(4S,5S)-7-ethyl-4-(4-fluorophenyl)-6-oxo-1-phenyl-5-[3-(trifluoromethyl)benzamido]-1H,4H,5H,6H,7H-pyrazolo[3,4-b]pyridin-3-yl]methyl}sulfamoyl)carbamate], 194 ± 19.9 nM. In the case of `CCN1C(=O)[C@@H](NC(=O)c2cccc(C(F)(F)F)c2)[C@@H](c2ccc(F)cc2)c2c(CN3CCN(CC(F)(F)F)CC3)nn(-c3ccccc3)c21` [RG-0014150, N-[(4S,5S)-7-ethyl-4-(4-fluorophenyl)-6-oxo-1-phenyl-3-{[4-(2,2,2-trifluoroethyl)piperazin-1-yl]methyl}-1H,4H,5H,6H,7H-pyrazolo[3,4-b]pyridin-5-yl]-3-(trifluoromethyl)benzamide] it was 173 ± 21.9 nM. The result for `CCN1C(=O)[C@@H](NC(=O)c2cccc(C)c2)[C@@H](c2ccc(F)cc2)c2c(C)nn(C3CCCC3)c21` [RG-0008878, N-[(4S,5S)-1-cyclopentyl-7-ethyl-4-(4-fluorophenyl)-3-methyl-6-oxo-1H,4H,5H,6H,7H-pyrazolo[3,4-b]pyridin-5-yl]-3-methylbenzamide] reads 770 ± 76.1 nM; that for `CCN1C(=O)[C@@H](NC(=O)c2cc(C)cs2)[C@@H](c2ccc(F)cc2)c2c(C)nn(-c3ccccc3)c21` [RG-0014044, N-[(4S,5S)-7-ethyl-4-(4-fluorophenyl)-3-methyl-6-oxo-1-phenyl-1H,4H,5H,6H,7H-pyrazolo[3,4-b]pyridin-5-yl]-4-methylthiophene-2-carboxamide], 785 ± 79.6 nM. On to `CCN1C(=O)[C@@H](NC(=O)c2cccc(C)c2)[C@@H](c2ccc(F)cc2)c2c(C)nn(-c3ccc(F)cc3)c21` [RG-0008866, N-[(4S,5S)-7-ethyl-1,4-bis(4-fluorophenyl)-3-methyl-6-oxo-1H,4H,5H,6H,7H-pyrazolo[3,4-b]pyridin-5-yl]-3-methylbenzamide], for which the EC50 worked out at 489 ± 18.5 nM.

The record behind these values is US12409171B2, “Pharmaceutically active pyrazolo-pyridone modulators of DCN1/2-mediated cullin neddylation” (UNIVERSITY OF KENTUCKY RESEARCH FOUNDATION, priority 2019, dated 2025).
